Laboratory results reported in patent publication US20260373165A1, “PHARMACEUTICAL COMBINATIONS AND COMPOSITIONS, AND METHODS OF USE THEREOF” (SHENZHEN HIGHTIDE BIOPHARMACEUTICAL LTD., priority 2022, published 2026).

Legend:
[1] = Example 1: oral glucose tolerance test (OGTT), blood glucose; type: in vivo, mouse (C57BL/6J male, 60% HFD DIO); conditions: for OGTT blood glucose level: HTD1801 200 mpk, empagliflozin 10 mpk (reduced after week 2), semaglutide 10 nmol/kg s.c. Q3D
Excerpt: (§1) After 5-week-old C57BL/6J male mice were acclimatized for 1 week, the weight of each mouse was weighed, and the mice were randomly divided into a control group and a model group by taking the weight as a main index, where 12 mice in the control group were fed with common feed (CD), and the mice in the remaining model group were fed with 60% high-fat feed (60% HFD) for 10-12 weeks to construct a DIO obesity model, with the average body weight being not less than 40 g. The mice fed with 60% HFD were grabbed and acclimatized with a solvent for 3 days, where the acclimatization with a solvent was performed by oral gavage of 0.5% CMC-Na, twice daily.
(§2) The food intake, the body weight, the body fat ratio, and the insulin level of the mice were respectively measured, followed by fasting blood glucose level, and the mice were randomly grouped according to Table 3 by taking the body weight as an index, and the remaining ungrouped mice were euthanized. After grouping, each group of mice was administered according to Table 3, the day of administration was defined as DO, and the administration volume of each drug was determined based on the results obtained by the calculation of 5 μL/g× mouse body weight (g).
For the combined administration group, the total administration volume was the sum of the administration volumes of two single drugs, and the administration sequence and the administration time were kept consistent at each administration. The mice were continuously fed with high-fat feed during the administration period until the administration was finished. During administration, 2 food intakes were measured per week (difference in feed weights at an interval of 24 h was measured); each group of mice was weighed once daily; postprandial blood glucose levels were measured weekly; blood was collected from the tail tip on day 6 and day 20, respectively, so as to measure fasting blood glucose levels once (blood was collected after fasting from 8:00 am to […]); on day 25 of administration, the body fat ratio and the lean mass of each group of mice were measured by MRI (the measurement period was kept consistent with that before grouping); after 4 weeks of administration intervention (day 28), each group of mice was fasted for 6 h and subjected to OGTT (0 min, 15 min, 30 min, 60 min, 90 min, 120 min) to detect their blood glucose levels, and meanwhile subjected to blood sampling via submaxillary vein (0 min, 15 min, 30 min, about 30 μL of blood sampled each time), and then the blood plasma was separated for detecting the insulin level by ELISA, where the separated blood plasma was more than 10 μL; the next day (D29) at the end of administration was set as the test endpoint, and the mice were fasted for 6 h in the morning and subjected to fasting blood glucose level measurement; subsequently, the mice were euthanized with CO2, blood was collected from the heart of each mouse for analysis, and each group of mice was dissected; the liver and subcutaneous, epididymal and mesenteric fat was collected, photographed and weighed, respectively.

[2] = Example 1: food intake within 24 h; type: in vivo, mouse (C57BL/6J male, 60% HFD DIO); conditions: during administration period, vs model control group
Excerpt: as §1
as §2, with “(g). […]” for “(g).”

[3] = day 28, 120 min (head printed "12 0min")

Compound	OGTT blood glucose level ([1]; day 28, 0 min)	OGTT blood glucose level ([1]; day 28, 15 min)	OGTT blood glucose level ([1]; day 28, 30 min)	OGTT blood glucose level ([1]; day 28, 60 min)	OGTT blood glucose level ([1]; day 28, 90 min)	OGTT blood glucose level [1, 3]	total blood glucose level in OGTT (in words) ([1]; day 28, relative to model control group G2)	food intake within 24 h (in words) [2]
OC[C@H]1O[C@@H](c2ccc(Cl)c(Cc3ccc(O[C@H]4CCOC4)cc3)c2)[C@H](O)[C@@H](O)[C@@H]1O [Empagliflozin, empagliflozin]	10.97 mmol/L	19.60 mmol/L	18.90 mmol/L	18.18 mmol/L	14.54 mmol/L	15.48 mmol/L	comparable	comparable to that of the model control group
COc1ccc2cc3[n+](cc2c1OC)CCc1cc2c(cc1-3)OCO2.C[C@H](CCC(=O)[O-])[C@H]1CC[C@H]2[C@@H]3[C@@H](O)C[C@@H]4C[C@H](O)CC[C@]4(C)[C@H]3CC[C@]12C [HTD1801, berberine ursodeoxycholate]	10.65 mmol/L	19.88 mmol/L	20.04 mmol/L	23.48 mmol/L	19.88 mmol/L	22.22 mmol/L	–	lower than the food intake for the model control group
